Data published in PMC5835287, “Synthesis, Characterization, and BSA-Binding Studies of Novel Sulfonated Zinc-Triazine Complexes” (Bioinorganic Chemistry and Applications, 2018).
Structures can show the parent of a compound that is named as a salt.

Target: T1, bovine serum albumin (BSA) (Bos taurus, UniProt P02769)
T1 construct: gene ALB
Test: UV absorbance titration at […] nm (binding constant Kb from […]/(A-A0) vs […]/[C] plot)
Conditions: read-out: UV absorbance titration at 280 nm (binding constant Kb from 1/(A-A0) vs 1/[C] pl) (converted)

T1 sequence (P02769 25-607): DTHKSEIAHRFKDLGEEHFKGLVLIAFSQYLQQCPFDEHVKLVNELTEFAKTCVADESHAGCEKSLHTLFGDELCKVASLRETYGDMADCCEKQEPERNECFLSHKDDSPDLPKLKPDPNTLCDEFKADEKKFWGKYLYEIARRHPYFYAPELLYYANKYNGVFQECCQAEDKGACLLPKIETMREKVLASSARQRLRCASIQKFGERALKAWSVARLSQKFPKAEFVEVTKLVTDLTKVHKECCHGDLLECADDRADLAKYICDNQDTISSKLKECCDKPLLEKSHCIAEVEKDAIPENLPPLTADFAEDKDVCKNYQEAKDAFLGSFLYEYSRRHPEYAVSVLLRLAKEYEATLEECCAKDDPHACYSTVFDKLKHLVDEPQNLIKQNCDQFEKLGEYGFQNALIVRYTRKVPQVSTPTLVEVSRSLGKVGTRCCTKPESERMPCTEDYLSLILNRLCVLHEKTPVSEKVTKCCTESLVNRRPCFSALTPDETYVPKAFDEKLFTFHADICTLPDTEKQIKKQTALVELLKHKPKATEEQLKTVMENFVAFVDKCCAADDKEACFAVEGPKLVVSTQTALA

Kd: 32.4 µM
SMILES: O=S(=O)(O)c1ccc(-c2nnc(-c3ccccn3)nc2-c2ccc(S(=O)(=O)O)o2)o1 [L1, 3-(2-pyridyl)-5,6-di(2-furyl)-1,2,4-triazine-5′,5″-disulfonic acid disodium salt]
